Source: patent US20220267269A1, “COMPOUNDS FOR THE MODULATION OF PROPROTEIN CONVERTASE SUBTILISIN/KEXIN TYPE 9 (PCSK9)” (SRX Cardio, LLC, priority 2019, published 2022)

Legend:
[1] = target: T1, PCSK9 (Homo sapiens, UniProt Q8NBP7); experiment: LDLR flow cytometric analysis (LDLR recovery in cells treated with recombinant PCSK9); format: cell-based
T1 construct: purchased Cayman Chemical 20631
Protocol: LDLR levels were measured using flow cytometry or fluorescence activated cell sorting (FACS) using protocols adapted from Benjannet et al., “Effects of the prosegment and pH on the activity of PCSK9: evidence for additional processing events” J Biol Chem. 285(52): 40965-40978 (2010) and “Composition and Methods of Use of Small Molecules as Binding Ligands for the Modulation of Proprotein Convertase Subtilisin/Kexin Type 9 (PCSK9) Protein Activity” (WO2016029037), which are incorporated by reference in their entirety.
Cells, such as HepG2, HuH7, FL83B, or a cell line transfected with a short-hairpin PCSK9 knockdown sequence such as HepG2/shPCSK9, HuH7/shPCSK9, or FL83B/shPCSK9 were cultured in media composed of complete, high glucose DMEM (Invitrogen) with 10% fetal bovine serum (Life Technologies), supplemented with penicillin-streptomycin (Life Technologies). Cells were plated in a 24-well plate, at 125 k cells/well, and cultured at 37° C. for 12-24 h. Culture media was removed and replaced with fresh culture media or culture media plus a predetermined amount of recombinant PCSK9 (for example, a final PCSK9 concentration of 5 μg/mL; Cayman Chemical, Ann Arbor, Mich., Catalog #20631). Wells evaluating test compounds were dosed with concentrations ranging from 0 nM to 100 μM.
Following an incubation period of 4-6 hours at 37° C., the media was removed and the cells rinsed by adding 0.5 ml of complete D-PBS (i.e., Dulbecco's phosphate buffered saline (D-PBS, Life Technologies) supplemented with 0.5% bovine serum albumin (BSA, Sigma) and 1 g/L glucose (Sigma)). The wash media was carefully aspirated, and cells released from the plate using 200 μL of TrypLE Express (Life Technologies) by incubating for 5-10 minutes at 37° C. The TrypLE-Cell suspension was inactivated by adding 100 μL of Fetal Bovine Serum, transferred to a v-bottom plate, and centrifuged at 250×gravity for 5 minutes. Following centrifugation, the supernatant was aspirated and the cell pellet is resuspended in 100 μL of complete D-PBS, and centrifuged at 250×gravity for 5 minutes. Following centrifugation, the supernatant was aspirated and the cell pellet was resuspended in 100 μL of antibody staining solution (600 μL of anti-LDLr-PE in complete D-PBS) and incubated on ice, protected from light, for 30 minutes. The cells were then pelleted by centrifugation, resuspended in 100 μL of 4′,6-Diamidino-2-phenylindole (DAPI, Cayman Chemical) or 7-aminoactinomycin D (7AAD, Life Technologies) staining solution to measure cell viability.
(§1) Cells were analyzed for both cell viability marker (dead cells) and LDLR in live cells using a flow cytometer per the manufacturer's operating manual. Cells incubated with small molecule compounds that are inhibitors of PCSK9 will be expected to show increased amounts of LDLR, relative to control (no compound) specimens, and cells incubated with small molecule compounds that are activators of PCSK9 will be expected to show decreased amounts of LDLR relative to control (no compound) specimens.
The percentage recovery in the LDLR assay at 10 μM concentration is provided as follows: +++: >80% recovery; ++: 40-80% recovery; +: 0-40% recovery.
The LDL-R EC50 is provided as follows: +++: <1; ++: 1 μM-5 μM; +: >5 μM.

[2] = target: T1, PCSK9; experiment: Fluorescent-LDL uptake analysis by flow cytometric analysis; format: cell-based
Protocol: Cells, such as HuH7, FL83B, or a cell line transfected with a short-hairpin PCSK9 knockdown sequence such as HuH7/shPCSK9 or FL83B/shPCSK9 were plated and cultured at 37° C. for 12-24 h. Culture media was removed and replaced with fresh lipoprotein-depleted culture media supplemented with 5 μg/mL of fluorescently labeled LDL or lipoprotein-depleted culture media supplemented with 5 μg/mL of fluorescently labeled LDL plus a concentration of recombinant PCSK9 (for example 5 μg/mL recombinant PCSK9; Cayman Chemical, Cat. #20631). Examples of fluorescently labeled LDL include: DiI-LDL (Kalen Biomedical), or LDL conjugated to Dylight (e.g., LDL-Dylight 488, or LDL-Dylight 550 (Cayman Chemical, Cat. #10011229)). Lipoprotein-depleted culture media was composed of DMEM (Invitrogen) with 10% lipoprotein-depleted fetal bovine serum (Kalen Biomedical) and supplemented with penicillin-streptomycin (Life Technologies). Cells were dosed with small molecule test compounds at doses ranging from 0 nM to 100 μM, following a protocol adapted from Benjannet et al., “Effects of the prosegment and pH on the activity of PCSK9: evidence for additional processing events” J Biol Chem. 285(52):40965-40978 (2010), which is incorporated by reference in its entirety.
Following an incubation period of specified length, such as 16 hours, the lipoprotein-depleted media was removed and cells rinsed three times with a rinse solution (Dulbecco's phosphate buffered saline (D-PBS, Life Technologies), supplemented with 0.5% bovine serum albumin (BSA, Sigma) and 1 g/L glucose (Sigma)). The fluid was then removed, and cells are released from the plate using TrypLE Express (Life Technologies) per manufacturer's recommended procedures, such as incubation for 5-10 minutes at 37° C. The TyrpLE-Cell suspension was then transferred to 15 mL conical tubes, volume was increased to 2 mL with D-PBS supplemented with 0.5% BSA, and […], and the tubes were centrifuged at 250×gravity for 10 minutes. Following centrifugation, the supernatant was aspirated and the cell pellet was resuspended in 300 μL PBS and counterstained with 4′,6-diamidino-2-phenylindole (DAPI, Cayman Chemical) as a cell viability marker, other cell viability markers such as 7-aminoactinomycin D (7AAD, Life Technologies) have also been described in the art.
as §1, with “analyzed by” for “analyzed”, “both 7AAD” for “both cell viability marker”, “and fluorescent LDL” for “and LDLR”, “of LDL fluorescence,” for “of LDLR,”, “of LDL fluorescence” for “of LDLR”
The LDL-uptake EC50 is provided as follows: +++: <0.5 μM; ++: 0.5-1μM; +: >1 μM.

[3] = Microsomal stability analysis, mouse; format: in vitro ADME; settings: pH 7.4; mouse liver microsomes, 1 μM test compound; read-out: Microsomal Stability t1/2
Protocol: (§2) Microsomal stability was determined as follows:
(§3) The assay was carried out in 96-well microtiter plates at 37° C. Reaction mixtures (25 μL) contained a final concentration of 1 μM test compound, 0.5 mg/mL liver microsomes protein, and 1 mM NADPH and/or 1 mM UDPGA (with alamethicin) in 100 mM potassium phosphate, pH 7.4 buffer with 3 mM MgCl2. At each of the time points (for example, 0, 15, 30, and 60 minutes), 150 μL of quench solution (100% acetonitrile with 0.1% formic acid) with internal standard was transferred to each well. Besides the zero minute controls, mixtures containing the same components except the NADPH can also be prepared as the negative control. Verapamil was included as a positive control to verify assay performance. Plates were sealed, vortexed, and centrifuged at 4° C. for 15 minutes at 4000 rpm. The supernatant was transferred to fresh plates for LC/MS/MS analysis. The extent of metabolism was calculated as the disappearance of the test compound, compared to the 0-min time incubation. Initial rates were calculated for the compound concentration and used to determine t½ values.

[4] = target: T1, PCSK9; experiment: Biodesy direct binding measurement (second harmonic generation); settings: Biodesy Delta System
Source text: Direct binding can be measured using the commercially available Biodesy Delta System (BDS, http://www.biodesy.com/products/; accessed Aug. 1, 2018). The BDS is a laser-based approach that utilizes second harmonic generation from a labeled protein to detect ligand binding, the method of which is covered and described by U.S. Pat. Nos. 9,395,358 and 8,932,822, and has been commercialized by Biodesy Inc. (South San Francisco, Calif.).

[5] = Microsomal stability analysis, human; format: in vitro ADME; settings: pH 7.4; human liver microsomes, 1 μM test compound; read-out: Microsomal Stability t1/2
Protocol: as §2, §3

[6] = Microsomal stability analysis, rat; format: in vitro ADME; settings: pH 7.4; rat liver microsomes, 1 μM test compound; read-out: Microsomal Stability t1/2
Protocol: as §2, §3

T1 sequence (Q8NBP7 153-692): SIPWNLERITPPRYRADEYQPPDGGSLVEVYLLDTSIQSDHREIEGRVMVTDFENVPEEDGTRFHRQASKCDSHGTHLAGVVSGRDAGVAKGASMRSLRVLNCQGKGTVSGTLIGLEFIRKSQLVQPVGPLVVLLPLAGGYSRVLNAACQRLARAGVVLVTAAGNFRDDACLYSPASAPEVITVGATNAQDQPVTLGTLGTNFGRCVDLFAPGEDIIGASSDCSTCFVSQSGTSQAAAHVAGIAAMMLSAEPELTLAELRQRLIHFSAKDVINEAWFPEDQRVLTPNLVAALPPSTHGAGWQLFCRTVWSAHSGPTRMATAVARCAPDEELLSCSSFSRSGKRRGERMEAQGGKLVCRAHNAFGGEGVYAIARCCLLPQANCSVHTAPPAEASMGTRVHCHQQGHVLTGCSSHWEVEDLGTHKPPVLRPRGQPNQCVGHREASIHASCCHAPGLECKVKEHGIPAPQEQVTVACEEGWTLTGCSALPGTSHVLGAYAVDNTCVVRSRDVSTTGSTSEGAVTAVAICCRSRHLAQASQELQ

| EC50 [1] [nM] | EC50 [2] [nM] | half-life at 1 μM [3] [min] | ΔSHG [4] [%] | half-life at 1 μM [5] [min] | half-life at 1 μM [6] [min] | SMILES |
| --- | --- | --- | --- | --- | --- | --- |
| 1000 to 5000 |  |  |  |  |  | c1ccc(-c2ccc(C3CCCN(C4CCCC4)C3)cc2)cc1 (stereo not shown) [1,003, 3-([1,1′-biphenyl]-4-yl)-1-cyclopentylpiperidine] |
| 1000 to 5000 |  |  |  |  |  | c1cc(-c2ccc(C3CCCN(CC4CCCC4)C3)cc2)ccn1 (stereo not shown) [1,005, 4-(4-(1-(cyclopentylmethyl)piperidin-3-yl)phenyl) pyridine] |
|  | > 1000 |  |  |  |  | FC(F)(F)c1cccc(-c2ccc(C3CCCN(CC4CCCC4)C3)cc2)c1 (stereo not shown) [1,013, 1-(cyclopentylmethyl)-3-(3′-(trifluoromethyl)-[1,1′-biphenyl]-4-yl)piperidine] |
|  | > 1000 |  |  |  |  | FC(F)(F)c1cc(C2CCCN(CC3CCOC3)C2)ccc1-c1ccccc1 (stereo not shown) [1,027, 1-((tetrahydrofuran-3-yl)methyl)-3-(2-(trifluoromethyl)-[1,1′-biphenyl]-4-yl)piperidine] |
|  | 500 to 1000 |  |  |  |  | Fc1cc(F)cc(-c2ccc(C3CCCN(CC4CCCC4)C3)cc2)c1 (stereo not shown) [1,029, 1-(cyclopentylmethyl)-3-(3′,5′-difluoro-[1,1′-biphenyl]-4-yl)piperidine] |
|  | 500 to 1000 |  |  |  |  | Cc1cc(-c2ccc(Cl)cc2)ccc1C1CCCN(CC2CCCC2)C1 (stereo not shown) [1,039, 3-(4′-chloro-3-methyl-[1,1′-biphenyl]-4-yl)-1-(cyclopentylmethyl) piperidine] |
|  | 500 to 1000 |  |  |  |  | Cc1cc(C2CCCN(C3CCCC3)C2)ccc1-c1ccc(Cl)cc1 (stereo not shown) [1,040, 3-(4′-chloro-2-methyl-[1,1′-biphenyl]-4-yl)-1-cyclopentylpiperidine] |
| 1000 to 5000 |  | 25 | > 10 | > 120 | 10 | Fc1ccc(-c2ccc(C3CCCN(CC4CC4)C3)cc2)cc1 (stereo not shown) [Compound 1,001, 1-(cyclopropylmethyl)-3-(4′-fluoro-[1,1′-biphenyl]-4-yl)piperidine] |
| 1000 to 5000 | 500 to 1000 | 28 |  | 22 | 13 | c1ccc(-c2ccc(C3CCCN(CC4CCCC4)C3)cc2)cc1 (stereo not shown) [Compound 1,006, 3-([1,1′-biphenyl]-4-yl)-1-(cyclopentylmethyl)piperidine] |
| 1000 to 5000 | < 500 | 67 |  | 86 | 13 | Fc1ccc(-c2ccc(C3CCCN(CC4CCCC4)C3)cc2)cc1 (stereo not shown) [Compound 1,009, 1-(cyclopentylmethyl)-3-(4′-fluoro-[1,1′-biphenyl]-4-yl)piperidine] |
| > 5000 | < 500 | 76 |  | > 120 | 15 | Clc1ccc(-c2ccc(C3CCCN(CC4CCCC4)C3)cc2)cc1 (stereo not shown) [Compound 1,010, 3-(4′-chloro-[1,1′-biphenyl]-4-yl)-1-(cyclopentylmethyl)piperidine] |
| < 1000 | < 500 | 61 |  | > 120 | 17 | FC(F)(F)c1ccc(-c2ccc(C3CCCN(CC4CCCC4)C3)cc2)cc1 (stereo not shown) [Compound 1,011, 1-(cyclopentylmethyl)-3-(4′-(trifluoromethyl)-[1,1′-biphenyl]-4-yl)piperidine] |
| > 5000 | 500 to 1000 |  |  |  |  | Fc1ccc(-c2ccc(C3CCCN(Cc4ccccc4)C3)cc2)cc1 (stereo not shown) [Compound 1,035, 1-benzyl-3-(4′-fluoro-[1,1′-biphenyl]-4-yl)piperidine] |
